Results reported in patent US7879858B2, “Substituted tetrahydropyrrolopyrazine compounds and the use thereof in pharmaceutical compositions” (Gruenenthal GmbH, priority 2006, dated 2011).

Experiments:
Serotonin reuptake = molecular target: T1, Serotonin reuptake (Rattus norvegicus, UniProt P31652); test: Inhibition of 5HT (serotonin) uptake in rat brain synaptosomes; assay type: biochemical; settings: 10 μmol; synaptosomes from rat brain
T1 construct: synaptosomes are freshly isolated from areas of the rat brain; from tissue; host or cells: rat brain synaptosomes (P2 fraction)
T1 sequence (P31652 whole entry): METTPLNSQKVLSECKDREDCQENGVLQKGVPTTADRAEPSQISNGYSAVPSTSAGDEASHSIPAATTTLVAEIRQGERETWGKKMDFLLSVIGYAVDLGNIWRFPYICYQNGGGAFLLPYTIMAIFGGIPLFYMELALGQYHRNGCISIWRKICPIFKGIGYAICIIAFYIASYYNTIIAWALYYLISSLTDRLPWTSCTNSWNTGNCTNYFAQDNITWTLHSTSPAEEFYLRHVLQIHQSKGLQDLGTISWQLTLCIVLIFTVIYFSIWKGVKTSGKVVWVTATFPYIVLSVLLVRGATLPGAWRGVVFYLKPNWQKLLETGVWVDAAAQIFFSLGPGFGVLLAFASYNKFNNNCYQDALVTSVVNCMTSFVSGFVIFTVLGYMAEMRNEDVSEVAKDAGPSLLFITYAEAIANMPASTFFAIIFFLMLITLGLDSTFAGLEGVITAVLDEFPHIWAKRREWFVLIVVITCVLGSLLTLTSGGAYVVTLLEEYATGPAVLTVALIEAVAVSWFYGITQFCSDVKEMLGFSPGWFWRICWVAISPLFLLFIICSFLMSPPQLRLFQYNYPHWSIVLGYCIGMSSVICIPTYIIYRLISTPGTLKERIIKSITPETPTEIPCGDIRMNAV
Protocol: (§1) Biological Data Inhibition of NA and 5HT Uptake
(§2) In order to be able to carry out these in vitro studies, synaptosomes are freshly isolated from areas of the rat brain. In each case a so-called “P2” fraction prepared in accordance with the instructions of Gray and Whittaker (E. G. Gray and V. P. Whittaker (1962) J. Anat. 76, 79-88) is prepared. For the NA uptake, these vesicular particles are isolated from the hypothalamus of male rat brains. A detailed description of the method can be found in the literature (M. Ch. Frink, H.-H. Hennies, W. Englberger, M. Haurand and B. Wilffert (1996) Arzneim.-Forsch./Drug Res. 46 (III), 11, 1029-1036).

NA reuptake = test: Inhibition of NA (noradrenaline) uptake in rat hypothalamus synaptosomes; assay type: biochemical; settings: synaptosomes from hypothalamus of male rat brains
Protocol: as §1, §2

SMILES	inhibition at 10 µM (Serotonin reuptake)	NA reuptake % inhibition [10 μmol] (NA reuptake)
O=C(c1cccs1)N1CCn2cccc2C1c1ccc(Cl)c(Cl)c1 (stereo not drawn) [Example 65, (1-(3,4-Dichlorophenyl)-3,4-dihydropyrrolo[1,2-a]pyrazin-2(1H)-yl)(thiophen-2-yl)methanone]	43%	49%
CC(C)C(=O)N1CCn2cccc2C1c1ccc(Cl)c(Cl)c1 (stereo not drawn) [Example 67, 1-(1-(3,4-dichlorophenyl)-3,4-dihydropyrrolo[1,2-a]pyrazin-2(1H)-yl)-2-methylpropan-1-one]	46%	46%
Cc1cccc(C2c3cccn3CCN2C(=O)C2CCCC2)c1 (stereo not drawn) [Example 17, cyclopentyl(1-m-tolyl-3,4-dihydropyrrolo[1,2-a]pyrazin-2(1H)-yl)methanone]	34%	21%
CC1c2cccn2CCN1C(=O)/C=C/c1ccc(F)cc1 (stereo not drawn) [Example 73, 3-(4-fluorophenyl)-1-(1-methyl-3,4-dihydropyrrolo[1,2-a]pyrazin-2(1H)-yl)prop-2-en-1-one]	25%	–
Cc1cccc(C2c3cccn3CCN2C(=O)CC(C)C)c1 (stereo not drawn) [Example 15, 3-methyl-1-(1-m-tolyl-3,4-dihydropyrrolo[1,2-a]pyrazin-2(1H)-yl)butan-1-one]	28%	19%
O=C(C1CCCC1)N1CCn2cccc2C1c1ccc(Cl)c(Cl)c1 (stereo not drawn) [Example 62, cyclopentyl-[1-(3,4-dichloro-phenyl)-3,4-dihydro-1H-pyrrolo[1,2-a]pyrazin-2-yl]-methanone]	51%	29%
CN(C)c1ccc(C2c3cccn3CCN2C(=O)C2CC2)cc1 (stereo not drawn) [Example 52, cyclopropyl(1-(4-(dimethylamino)phenyl)-3,4-dihydropyrrolo[1,2-a]pyrazin-2(1H)-yl)methanone]	27%	16%
O=C(c1ccco1)N1CCn2cccc2C1c1ccc2c(c1)OCCO2 (stereo not drawn) [Example 37, [1-(2,3-dihydro-benzo[1,4]dioxin-6-yl)-3,4-dihydro-1H-pyrrolo[1,2-a]pyrazin-2-yl]-furan-2-yl-methanone]	55%	32%
O=C(C1CCC1)N1CCn2cccc2C1c1ccc(Cl)c(Cl)c1 (stereo not drawn) [Example 66, cyclobutyl(1-(3,4-dichlorophenyl)-3,4-dihydropyrrolo[1,2-a]pyrazin-2(1H)-yl)methanone]	43%	32%
COc1ccccc1C1c2cccn2CCN1C(=O)C1CCCC1 (stereo not drawn) [Example 2, cyclopentyl-[1-(2-methoxy-phenyl)-3,4-dihydro-1H-pyrrolo[1,2-a]pyrazin-2-yl]-methanone]	79%	36%
CC(=O)N1CCn2cccc2C1c1cccs1 (stereo not drawn) [Example 83, 1-(1-(thiophen-2-yl)-3,4-dihydropyrrolo[1,2-a]pyrazin-2(1H)-yl)ethanone]	16%	–
O=C(c1ccc2c(c1)OCO2)N1CCn2cccc2C1c1ccc(Cl)c(Cl)c1 (stereo not drawn) [Example 61, benzo[1,3]dioxol-5-yl-[1-(3,4-dichloro-phenyl)-3,4-dihydro-1H-pyrrolo[1,2-a]pyrazin-2-yl]-methanone]	64%	68%
CC1c2cccn2CCN1C(=O)/C=C/c1ccc(SC(F)(F)F)cc1 (stereo not drawn) [Example 74, 1-(1-methyl-3,4-dihydropyrrolo[1,2-a]pyrazin-2(1H)-yl)-3-(4-(trifluoromethylthio)phenyl)prop-2-en-1-one]	32%	–
CCCCCC(=O)N1CCn2cccc2C1c1cccs1 (stereo not drawn) [Example 78, 1-(1-(thiophen-2-yl)-3,4-dihydropyrrolo[1,2-a]pyrazin-2(1H)-yl)hexan-1-one]	51%	–
CCC(OC)C(=O)N1CCn2cccc2C1c1cccs1 (stereo not drawn) [Example 55, 2-methoxy-1-(1-(thiophen-2-yl)-3,4-dihydropyrrolo[1,2-a]pyrazin-2(1H)-yl)butan-1-one]	28%	–
O=C(c1ccccc1)N1CCn2cccc2C1c1cccs1 (stereo not drawn) [Example 82, phenyl(1-(thiophen-2-yl)-3,4-dihydropyrrolo[1,2-a]pyrazin-2(1H)-yl)methanone]	–	35%
CC(C)(C)CC(=O)N1CCn2cccc2C1c1cccs1 (stereo not drawn) [Example 85, 3,3-dimethyl-1-(1-(thiophen-2-yl)-3,4-dihydropyrrolo[1,2-a]pyrazin-2(1H)-yl)butan-1-one]	12%	–

Further lines, with some results ahead:

inhibition at 10 µM (Serotonin reuptake)	SMILES	NA reuptake % inhibition [10 μmol] (NA reuptake)
38%	Cc1ccccc1C(=O)N1CCn2cccc2C1c1ccccc1C (stereo not drawn) [Example 11, o-tolyl(1-o-tolyl-3,4-dihydropyrrolo[1,2-a]pyrazin-2(1H)-yl)methanone]	–
57%	O=C(c1ccco1)N1CCn2cccc2C1c1ccc(Cl)c(Cl)c1 (stereo not drawn) [Example 68, [1-(3,4-dichloro-phenyl)-3,4-dihydro-1H-pyrrolo[1,2-a]pyrazin-2-yl]-furan-2-yl-methanone]	48%
25%	O=C(CCCCc1ccccc1)N1CCn2cccc2C1c1cccs1 (stereo not drawn) [Example 77, 5-phenyl-1-(1-(thiophen-2-yl)-3,4-dihydropyrrolo[1,2-a]pyrazin-2(1H)-yl)pentan-1-one]	10%
26%	CCC(C)C(=O)N1CCn2cccc2C1c1ccccc1C (stereo not drawn) [Example 31, 2-methyl-1-(1-o-tolyl-3,4-dihydropyrrolo[1,2-a]pyrazin-2(1H)-yl)butan-1-one]	–
44%	Cc1ccccc1C(=O)N1CCn2cccc2C1c1cccs1 (stereo not drawn) [Example 57, (1-(thiophen-2-yl)-3,4-dihydropyrrolo[1,2-a]pyrazin-2(1H)-yl)(o-tolyl)methanone]	15%
41%	Cc1ccccc1C(=O)N1CCn2cccc2C1c1ccc(N(C)C)cc1 (stereo not drawn) [Example 50, (1-(4-(dimethylamino)phenyl)-3,4-dihydropyrrolo[1,2-a]pyrazin-2(1H)-yl)(o-tolyl)methanone]	14%
37%	O=C(c1ccc(F)cc1)N1CCn2cccc2C1c1cccs1 (stereo not drawn) [Example 60, (4-fluorophenyl)(1-(thiophen-2-yl)-3,4-dihydropyrrolo[1,2-a]pyrazin-2(1H)-yl)methanone]	11%
55%	Cc1cccc(C2c3cccn3CCN2C(=O)c2ccc(F)cc2)c1 (stereo not drawn) [Example 13, (4-fluoro-phenyl)-(1-m-tolyl-3,4-dihydro-1H-pyrrolo[1,2-a]pyrazin-2-yl)-methanone]	41%
27%	O=C(/C=C/c1ccc(F)cc1F)N1CCn2cccc2C1c1ccccc1 (stereo not drawn) [Example 71, 3-(2,4-difluorophenyl)-1-(1-phenyl-3,4-dihydropyrrolo[1,2-a]pyrazin-2(1H)-yl)prop-2-en-1-one]	17%
34%	O=C(C1CC1)N1CCn2cccc2C1c1ccccc1F (stereo not drawn) [Example 6, cyclopropyl(1-(2-fluorophenyl)-3,4-dihydropyrrolo[1,2-a]pyrazin-2(1H)-yl)methanone]	13%
53%	O=C(c1cccs1)N1CCn2cccc2C1c1cccc(Cl)c1 (stereo not drawn) [Example 45, [1-(3-chloro-phenyl)-3,4-dihydro-1H-pyrrolo[1,2-a]pyrazin-2-yl]-thiophen-2-yl-methanone]	43%
30%	O=C(c1ccc2c(c1)OCO2)N1CCn2cccc2C1c1ccccc1F (stereo not drawn) [Example 9, benzo[d][1,3]dioxol-5-yl(1-(2-fluorophenyl)-3,4-dihydropyrrolo[1,2-a]pyrazin-2(1H)-yl)methanone]	27%
53%	O=C(c1ccccc1F)N1CCn2cccc2C1c1cccc(Cl)c1 (stereo not drawn) [Example 44, [1-(3-chloro-phenyl)-3,4-dihydro-1H-pyrrolo[1,2-a]pyrazin-2-yl]-(2-fluoro-phenyl)-methanone]	41%
11%	O=C(c1ccco1)N1CCn2cccc2C1c1ccccc1F (stereo not drawn) [Example 5, (1-(2-fluorophenyl)-3,4-dihydropyrrolo[1,2-a]pyrazin-2(1H)-yl)(furan-2-yl)methanone]	34%
35%	O=C(c1ccc(F)cc1)N1CCn2cccc2C1c1ccc(F)cc1F (stereo not drawn) [Example 19, (1-(2,4-difluorophenyl)-3,4-dihydropyrrolo[1,2-a]pyrazin-2(1H)-yl)(4-fluorophenyl)methanone]	28%
18%	O=C(c1ccccc1F)N1CCn2cccc2C1c1ccccc1F (stereo not drawn) [Example 47, (2-fluorophenyl)(1-(2-fluorophenyl)-3,4-dihydropyrrolo[1,2-a]pyrazin-2(1H)-yl)methanone]	12%
26%	COc1ccccc1C1c2cccn2CCN1C(=O)c1cccc(F)c1 (stereo not drawn) [Example 1, (3-fluorophenyl)(1-(2-methoxyphenyl)-3,4-dihydropyrrolo[1,2-a]pyrazin-2(1H)-yl)methanone]	–
17%	O=C(CCCc1ccccc1)N1CCn2cccc2C1c1cccs1 (stereo not drawn) [Example 87, 4-phenyl-1-(1-(thiophen-2-yl)-3,4-dihydropyrrolo[1,2-a]pyrazin-2(1H)-yl)butan-1-one]	–
27%	CCC(C)C(=O)N1CCn2cccc2C1c1ccccc1OC (stereo not drawn) [Example 48, 1-(1-(2-methoxyphenyl)-3,4-dihydropyrrolo[1,2-a]pyrazin-2(1H)-yl)-2-methylbutan-1-one]	–
